Measurements as given in EP4659758A1, “ANTI-AGING COMPOSITION” (Mitsubishi Corporation Life Sciences Limited, priority 2023, dated 2024).

How the values were obtained:
Type in all cases: cell-based
Normal human fibroblasts [1] = experiment: Suppression of decrease in proliferation capability after hydrogen peroxide aging induction (MTT assay); details: 50 µM or 100 µM, 0.5 mM hydrogen peroxide aging induction; relative to untreated non-induced = 100; compared with only aging induction and with 100 µM reduced glutathione, p < 0.005
Description: Normal human fibroblasts were seeded in 96 well plates (3.0 × 10^3 cells/well, N = 3) and precultured for 24 hours (5% CO2, 37°C). As a medium, MEM-α, nucleosides medium (Gibco) containing fetal bovine serum (10% of serum-free medium was externally added) was used. Thereafter, the wells were washed once with PBS (-), then replaced with MEM-α, nucleoside medium containing fetal bovine serum (5% of serum-free medium was externally added) dissolved so that the final concentration of Sample 1 or Sample 2 was 50 µM or 100 µM, and further incubated for 30 minutes. Thereafter, fibroblasts were treated with a medium adjusted so that the final concentration of hydrogen peroxide was 0.5 mM to induce aging. Thereafter, an MTT assay was performed according to a conventional method, and the survival rate of fibroblasts was calculated as a relative value when the survival rate of cells in the test section in which neither treatment nor aging induction was performed was taken as 100.
For comparison, a test section in which only aging induction was performed and a test section in which reduced glutathione was 100 µM was set instead of Sample 1. […]

Normal human fibroblasts [2] = experiment: Suppression of decrease in hyaluronic acid production capability due to aging induction (ELISA); details: 50 µM or 100 µM, 0.5 mM hydrogen peroxide, 24 hours; for hyaluronic acid production amount: relative value, compared with only aging induction
Description: Normal human fibroblasts were seeded in 24 well plates (8.0 × 10^4 cells/well, N = 3) and precultured for 24 hours (5% CO2, 37°C). As a medium, MEM-α, nucleosides medium (Gibco) containing fetal bovine serum (10% of serum-free medium was externally added) was used. Thereafter, the wells were washed once with PBS (-), then replaced with MEM-α, nucleoside medium containing fetal bovine serum (5% of serum-free medium was externally added) dissolved so that the final concentration of Sample 1 or Sample 2 was 50 µM or 100 µM, and further incubated for 30 minutes. Thereafter, fibroblasts were treated with a medium adjusted so that the final concentration of hydrogen peroxide was 0.5 mM to induce aging. Thereafter, the culture medium was changed to MEM-α, nucleoside medium containing fetal bovine serum (5% of serum-free culture medium was externally added) and incubated for 24 hours, and then the amount of hyaluronic acid was quantified by ELISA using a hyaluronic acid quantification kit (Cosmo Bio Inc.).
The hyaluronic acid production amount in each test section was shown as a relative value when the hyaluronic acid production amount in each sample and the test section in which aging induction was not performed was taken as 100. Regarding the hyaluronic acid production amount, a significant difference test (t-test, two-tailed) between the two groups of the test section for Sample 1 and the test section for which only the aging induction was performed respectively, and a significant difference test between the test section for Sample 2 and the test section for which only the aging induction was performed were each performed, and "*(p < 0.05)" was marked for those in which a significant difference was recognized.

B16 mouse melanoma cells = experiment: Melanin production suppression test in cultured cells (absorbance at 405 nm); details: α-MSH 200 nM induction; for melanin production amount: 0.02 mM or 0.05 mM, relative to reference sample (induction only) = 100, p < 0.01
Description: B16 mouse melanoma cells were seeded in a 6 well plate (2.0 × 10^4 cells/well), and cultured for 24 hours in D-MEM medium to which 5% fetal bovine serum was added with respect to the medium (5%CO2, 37°C). […] The obtained pellets were washed twice with PBS (-), 150 µL of a 1 M sodium hydroxide solution was then added, and the mixture was treated at 100°C for 10 minutes to dissolve the pellets, thereby preparing a reference sample. […] One hundred µL of a sample of each test section was added to a 96 well plate, and the absorbance at 405 nm was measured with a microplate reader (n = 3). […] The significant difference test was performed on the measured value of the reference sample by the Dunnett method (*p < 0.05, **p < 0.01.).

[3] = system: Normal human epidermal keratinocytes; experiment: Suppression of decrease in proliferation capability after hydrogen peroxide aging induction (MTT assay); details: 50 µM or 100 µM, 0.5 mM hydrogen peroxide aging induction; relative to untreated non-induced = 100; compared with only aging induction
Description: Normal human epidermal keratinocytes were seeded in 96 well plates (1.0 × 10^4 cells/well, N = 3) and precultured for 24 hours (5%CO2, 37°C). As a medium, a commercially available keratinocyte growth medium (PromoCell) was used. Thereafter, the wells were washed once with PBS (-), then replaced with a keratinocyte growth medium dissolved so that the final concentration of Sample 1 was 50 µM or 100 µM, and further incubated for 30 minutes. Thereafter, normal human epidermal keratinocytes were treated with a medium adjusted to have a final concentration of hydrogen peroxide of 0.5 mM to induce aging. Thereafter, an MTT assay was performed according to a conventional method, and the survival rate of normal human epidermal keratinocytes was calculated as a relative value when the survival rate of cells in a test section in which neither the treatment with oxidized glutathione trisulfide nor the aging induction was performed was taken as 100.
For comparison, a test section in which only aging induction was performed without treatment with oxidized glutathione trisulfide was set.
Regarding the survival rate, a significant difference test (t-test, two-tailed) between the two groups of the test section of Sample 1 and the test section in which only aging induction was performed was performed respectively.

tyrosinase = biological target: T1, tyrosinase (Mus musculus, UniProt P11344); experiment: Tyrosinase activity suppression test (L-DOPA, absorbance at 490 nm, cell extract); details: 0.05 mM or 0.1 mM at melanin induction
T1 construct: a protein extract containing tyrosinase derived from B16 mouse melanoma cells; endogenous in cells; host or cells: B16 mouse melanoma cells, alpha-MSH induced; RIPA buffer lysate supernatant
T1 sequence (P11344 19-533): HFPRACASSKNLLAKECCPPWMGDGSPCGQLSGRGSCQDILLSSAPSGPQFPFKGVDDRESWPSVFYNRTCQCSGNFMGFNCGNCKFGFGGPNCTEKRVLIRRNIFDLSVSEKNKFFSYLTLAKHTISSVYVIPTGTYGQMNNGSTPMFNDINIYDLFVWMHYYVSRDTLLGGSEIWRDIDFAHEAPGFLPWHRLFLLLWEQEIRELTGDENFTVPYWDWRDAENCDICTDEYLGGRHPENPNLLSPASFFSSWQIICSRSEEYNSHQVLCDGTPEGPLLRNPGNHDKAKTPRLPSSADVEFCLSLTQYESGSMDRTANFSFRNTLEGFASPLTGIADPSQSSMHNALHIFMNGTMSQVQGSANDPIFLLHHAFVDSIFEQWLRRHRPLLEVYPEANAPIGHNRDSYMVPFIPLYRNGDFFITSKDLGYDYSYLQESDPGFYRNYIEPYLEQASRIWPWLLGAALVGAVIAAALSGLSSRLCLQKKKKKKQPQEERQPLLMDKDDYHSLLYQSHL
Excerpt: In addition, the tyrosinase activity in the present invention can be confirmed by adding L-DOPA having a known concentration to a protein extract containing tyrosinase derived from B16 mouse melanoma cells in which melanin is induced by a melanin inducer such as α-MSH (melanocyte stimulating hormone) to react, measuring the absorbance at 490 nm, and correcting the absorbance with the protein concentration in the protein extract. The tyrosinase activity inhibitory effect can be known by comparing the value of the absorbance at 490 nm corrected by the protein concentration measured by adding the test substance at the time of melanin induction and the same operation with the value of the test section to which the test substance is not added.
B16 mouse melanoma cells were seeded in a 6 well plate (2.0 × 10^4 cells/well), and cultured for 24 hours in D-MEM medium to which 5% fetal bovine serum was added with respect to the medium (5%CO2, 37°C). […] The protein concentration of the obtained sample was measured by the BCA method.
The same operation was performed except that melanin induction was not performed, and a reference sample was obtained. […] Fifty µL of a sample of each test section was placed in a 96 well plate (n=3), 50 µL of 0.8 mg/mL L-DOPA was added, the mixture was reacted at 37°C for 1 hour, and then the absorbance at 490 nm was measured with a microplate reader. […]

[4] = system: Normal human epidermal keratinocytes; experiment: Suppression of decrease in hyaluronic acid production capability due to aging induction (ELISA); details: 50 µM, 0.5 mM hydrogen peroxide, 24 hours
Description: Normal human epidermal keratinocytes were seeded in 24 well plates (1.0 × 10^5 cells/well, N = 3) and precultured for 24 hours (5%CO2, 37°C). As a medium, a commercially available keratinocyte growth medium (PromoCell) was used. Thereafter, the wells were washed once with PBS (-), then replaced with a keratinocyte growth medium dissolved so that the final concentration of Sample 1 was 50 µM, and further incubated for 30 minutes. Thereafter, normal human epidermal keratinocytes were treated with a medium adjusted to have a final concentration of hydrogen peroxide of 0.5 mM to induce aging. Thereafter, the medium was replaced with a new keratinocyte growth medium and incubated for 24 hours, and then the amount of hyaluronic acid was quantified by an ELISA method using a hyaluronic acid quantification kit (Cosmo Bio). For comparison, a test section not treated with oxidized glutathione trisulfide was provided.
The hyaluronic acid production amount in each of the test sections was shown as a relative value when the hyaluronic acid production amount in the test section in which neither oxidized glutathione trisulfide treatment nor aging induction was performed was taken as 100. […]

## CC(=O)N[C@@H](CSSSC[C@H](NC(C)=O)C(=O)O)C(=O)O [Sample 2, oxidized NAC trisulfide]
Normal human fibroblasts [1]
  survival rate of fibroblasts (cell proliferation rate): significant cell proliferation rate
Normal human fibroblasts [2]
  hyaluronic acid production amount: significantly higher than that in the test section of only aging induction
B16 mouse melanoma cells
  melanin production amount: significantly low

## N[C@@H](CCC(=O)N[C@@H](CSSSC[C@H](NC(=O)CC[C@H](N)C(=O)O)C(=O)NCC(=O)O)C(=O)NCC(=O)O)C(=O)O [Sample 1, oxidized glutathione trisulfide]
Normal human fibroblasts [1]
  survival rate of fibroblasts (cell proliferation rate): significant cell proliferation rate
Normal human fibroblasts [2]; compared with test sections without aging induction, no significant difference
  hyaluronic acid production capability: same hyaluronic acid production capability as those of the test sections that did not induce aging
Normal human fibroblasts [2]
  hyaluronic acid production amount: significantly higher than that in the test section of only aging induction
[3]
  survival rate of normal human epidermal keratinocytes (cell proliferation rate): significant cell proliferation rate
tyrosinase; compared with reference sample (no melanin induction) = 100
  tyrosinase activity: same degree of tyrosinase activity as the reference sample
tyrosinase; compared with test section with only melanin induction
  tyrosinase activity: significantly lower than the test section in which only melanin induction was performed
B16 mouse melanoma cells
  melanin production amount: significantly low
[4]; compared with control group without aging induction, no significant difference
  hyaluronic acid production capability: same hyaluronic acid production capability as that of the control group in which aging is not induced
[4]; relative value, compared with only aging induction
  hyaluronic acid production amount: significantly higher than that in the test section of only aging induction

## N[C@@H](CCC(=O)N[C@@H](CS)C(=O)NCC(=O)O)C(=O)O [reduced glutathione, reference compound]
B16 mouse melanoma cells; 3 mM, compared with 0.02 mM Sample 1
  melanin production suppressing effect: same melanin production suppressing effect as the 0.02 mM test section of Sample 1
